# Counter-ions that a name gives are not always drawn.
# Legend:
# [1] = target: T1, rCB-1 (Rattus norvegicus, UniProt P20272); assay: rCB1-CHO antagonist mode SPA GTP-γ-35S binding assay; type: biochemical; conditions: antagonist mode vs methanandamide; read-out: rCB-1 SPA GTPγS CHO Membrane Antagonist Kb
# T1 construct: purchased Applied Cell Sciences, Rockville, Md; host or cells: CHO cell membranes
# Description: (§1) Compounds of the present invention may be tested for functional activity at the CB-1 and CB-2 receptors in both agonist and antagonist modes using SPA (Scintillation Proximity Assay) based GTP-γ-^35S binding assays. All assay components are prepared in assay buffer (20 mM HEPES, 100 mM NaCl, 5 mM MgCl2, pH 7.4) at room temperature. Semi-log dilutions of test compound are prepared in assay buffer containing BSA (0.125% final conc.) for the agonist mode assays. For the antagonist mode assays, test compounds are prepared in the same manner but also include an 80% efficacious dose of a full agonist (methanandamide). GTP-γ^35S binding for the antagonist assay may be measured in a 96 well format using a modification of an antibody capture technique previously described. (DeLapp, N W, et al. (1999) J Pharmacol Exp Ther 289:946-955.) The CB-2 receptor agonist activity may be measured using a similar method using hCB2-Sf9 membranes. The CB-1 receptor agonist activity may be measured using a whole membrane capture technique using hCB1-CHO membranes. All incubations are done at room temperature.
# (§2) hCB1-CHO or rCB1-CHO membranes (Applied Cell Sciences, Rockville, Md.) and GDP (1 μM final) are added to ice cold assay buffer and homogenized. […] Plates are then centrifuged at 700×g for 10 min. and the radioactivity counted.
# (§3) Data are analyzed as follows: Background is subtracted from all wells. […] Percent antagonist inhibition is calculated by first normalizing the data to the signal generated by a saturating concentration of the full agonist (methanandamide). Then the data are analyzed using a 4-parameter logistic reduced fit (Activity Base™ and XLFit3™ from IDBS, Emeryville, Calif.). Kb values are determined using a modification of the Cheng-Prusoff relationship: Kb=IC50/(1+[agonist]/EC50), where “IC50” is determined from a four parameter fit of displacement curves, “[agonist]” is the agonist challenge concentration (nM), and “EC50” is determined from a four parameter fit of a full agonist concentration response curve (Cheng and Prusoff 1973). […]
# [2] = target: T2, hCB-2 (Homo sapiens, UniProt P34972); assay: hCB2-Sf9 antagonist mode SPA GTP-γ-35S binding assay; type: biochemical; conditions: antagonist mode vs methanandamide; read-out: hCB-2 SPA GTPγS Sf9 Membrane Antagonist Kb
# T2 construct: purchased Perkin Elmer, Boston, Mass; host or cells: Sf9 cell membranes
# Description: (§4) Compounds of the present invention may be tested for functional activity at the CB-1 and CB-2 receptors in both agonist and antagonist modes using SPA (Scintillation Proximity Assay) based GTP-γ-^35S binding assays. All assay components are prepared in assay buffer (20 mM HEPES, 100 mM NaCl, 5 mM MgCl2, pH 7.4) at room temperature. Semi-log dilutions of test compound are prepared in assay buffer containing BSA (0.125% final conc.) for the agonist mode assays. For the antagonist mode assays, test compounds are prepared in the same manner but also include an 80% efficacious dose of a full agonist (methanandamide). GTP-γ^35S binding for the antagonist assay may be measured in a 96 well format using a modification of an antibody capture technique previously described. (DeLapp, N W, et al. (1999) J Pharmacol Exp Ther 289:946-955.) The CB-2 receptor agonist activity may be measured using a similar method using hCB2-Sf9 membranes. The CB-1 receptor agonist activity may be measured using a whole membrane capture technique using hCB1-CHO membranes. All incubations are done at room temperature. […]
# (§5) Data are analyzed as follows: Background is subtracted from all wells. […] Percent antagonist inhibition is calculated by first normalizing the data to the signal generated by a saturating concentration of the full agonist (methanandamide). Then the data are analyzed using a 4-parameter logistic reduced fit (Activity Base™ and XLFit3™ from IDBS, Emeryville, Calif.). Kb values are determined using a modification of the Cheng-Prusoff relationship: Kb=IC50/(1+[agonist]/EC50), where “IC50” is determined from a four parameter fit of displacement curves, “[agonist]” is the agonist challenge concentration (nM), and “EC50” is determined from a four parameter fit of a full agonist concentration response curve (Cheng and Prusoff 1973). Mean Kb values are calculated as a mean of at least three independent determinations±standard error of the mean (SEM). […]
# [3] = target: T3, hCB-1 (Homo sapiens, UniProt P21554); assay: hCB1-Sf9 antagonist mode SPA GTP-γ-35S binding assay; type: biochemical; set-up: purchased Applied Cell Sciences, Rockville, Md; conditions: Sf9 membrane 22.7 μg; antagonist mode vs methanandamide; read-out: hCB-1 SPA GTPγS Sf9 Membrane 22.7 μg Antagonist Kb
# Description: as §4, §5
# [4] = target: T4, CYP2D6 (Homo sapiens, UniProt P10635); assay: Human CYP fingerprinting, quinidine inhibition; type: in vitro ADME; conditions: 4 μM, human liver microsomes, 30 min, 10 μM quinidine
# T4 construct: pooled, mixed gender, human liver microsomes; from tissue; host or cells: pooled, mixed gender human liver microsomes
# Description: (§6) CYP fingerprinting is well established technique and is used as an indication of potential risk of drug-drug interactions in the pharmaceutical sciences. Compounds of the present invention may be assayed by well known methods, essentially as follows: Compounds are incubated at 37° C. at a final concentration of 4 μM with pooled, mixed gender, human liver microsomes and 1 mM NADPH (Nicotine Adenine Dinucleotide Phosphate) (final conc.) for 0 and 30 min. without any CYP inhibitor and with each CYP inhibitor in separate incubations for 30 min. Each inhibitor is specific for an individual cytochrome P450. The specific inhibitors used for CYPs 2C9, 2D6 and 3A were sulfaphenazole, quinidine and ketoconazole, respectively. Ketoconazole (CYP3A) is made up at 25 mM in DMSO and then diluted in buffer to a final concentration of 10 μM. Quinidine (CYP2D6) is made up at 5 mM in 50/50 acetonitrile/water and then diluted in buffer to a final concentration of 10 μM. Sulfaphenazole (CYP2C9) is made up at 100 mM in DMSO and then diluted in buffer to a final concentration of 5 μM. Samples are analyzed by LC-MS in positive or negative electrospray mode using a Waters Acquity Ultra Performance LC coupled to a MicroMass Q-T of-2 mass spectrometer.
# (§7) Data are analyzed using MetaboLynx™ version 4.1. […]
# [5] = target: T3, hCB-1; assay: hCB1-CHO antagonist mode SPA GTP-γ-35S binding assay; type: biochemical; set-up: purchased Applied Cell Sciences, Rockville, Md; host or cells: CHO cell membranes; conditions: antagonist mode vs methanandamide; read-out: hCB-1 SPA GTPγS CHO Membrane Antagonist Kb
# Description: as §1, §2, §3
# [6] = system: CYP3A; assay: Human CYP fingerprinting, ketoconazole inhibition; type: in vitro ADME; conditions: 4 μM, human liver microsomes, 30 min, 10 μM ketoconazole
# Description: as §6, §7
# [7] = target: T2, hCB-2; assay: hCB2-Sf9 agonist mode SPA GTP-γ-35S binding assay; type: biochemical; conditions: read-out: hCB-2 SPA GTPγS Sf9 Membrane Agonist Relative EC50
# Description: as §4
# Data are analyzed as follows: Background is subtracted from all wells. […] Percent antagonist inhibition is calculated by first normalizing the data to the signal generated by a saturating concentration of the full agonist (methanandamide). […]
# [8] = target: T5, CYP2C9 (Homo sapiens, UniProt P11712); assay: Human CYP fingerprinting, sulfaphenazole inhibition; type: in vitro ADME; conditions: 4 μM, human liver microsomes, 30 min, 5 μM sulfaphenazole
# T5 construct: pooled, mixed gender, human liver microsomes; from tissue; host or cells: pooled, mixed gender human liver microsomes
# Description: as §6, §7
# [9] = target: T3, hCB-1; assay: hCB1-CHO agonist mode SPA GTP-γ-35S binding assay; type: biochemical; set-up: purchased Applied Cell Sciences, Rockville, Md; host or cells: CHO cell membranes
# Description: as §1
# hCB1-CHO membrane, GDP (1 μM final conc.), and saponin (10 μg/mL final conc., Sigma, St Louis, Mo.) are combined and prepared on ice as for the antagonist assays, above. Diluted test compounds, GTP-γ-^35S ([…] final conc.) and membranes are combined in the assay plate and incubated for 30 min. Then 1 mg/well Wheatgerm Agglutinin SPA beads (GE Healthcare, Piscataway, N.J.) are added, plates are sealed and vortexed and incubate for 1 hr. before spinning and counting in the same fashion as for the antagonist assays, above.
# Data are analyzed as follows: Background is subtracted from all wells. Percent agonist efficacy is determine by normalizing agonist/inverse agonist dose response data to the response obtained for a full agonist (methanandamide). Percent antagonist inhibition is calculated by first normalizing the data to the signal generated by a saturating concentration of the full agonist (methanandamide). Then the data are analyzed using a 4-parameter logistic reduced fit (Activity Base™ and XLFit3™ from IDBS, Emeryville, Calif.). Kb values are determined using a modification of the Cheng-Prusoff relationship: Kb=IC50/(1+[agonist]/EC50), where “IC50” is determined from a four parameter fit of displacement curves, “[agonist]” is the agonist challenge concentration (nM), and “EC50” is determined from a four parameter fit of a full agonist concentration response curve (Cheng and Prusoff 1973). Mean Kb values are calculated as a mean of at least three independent determinations±standard error of the mean (SEM). […]
# T3 sequence (P21554 whole entry): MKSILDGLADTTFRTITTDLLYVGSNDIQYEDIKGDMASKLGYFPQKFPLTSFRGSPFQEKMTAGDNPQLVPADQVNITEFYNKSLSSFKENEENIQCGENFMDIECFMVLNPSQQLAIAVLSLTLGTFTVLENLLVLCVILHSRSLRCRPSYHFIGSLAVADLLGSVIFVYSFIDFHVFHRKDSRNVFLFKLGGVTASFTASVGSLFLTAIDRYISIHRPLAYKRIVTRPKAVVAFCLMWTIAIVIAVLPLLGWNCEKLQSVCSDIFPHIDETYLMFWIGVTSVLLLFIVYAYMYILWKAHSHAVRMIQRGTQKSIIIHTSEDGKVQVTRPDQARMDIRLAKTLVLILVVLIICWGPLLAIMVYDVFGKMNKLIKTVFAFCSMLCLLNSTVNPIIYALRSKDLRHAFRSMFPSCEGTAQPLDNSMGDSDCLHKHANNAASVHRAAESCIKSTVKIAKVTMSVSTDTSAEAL
# T2 sequence (P34972 whole entry): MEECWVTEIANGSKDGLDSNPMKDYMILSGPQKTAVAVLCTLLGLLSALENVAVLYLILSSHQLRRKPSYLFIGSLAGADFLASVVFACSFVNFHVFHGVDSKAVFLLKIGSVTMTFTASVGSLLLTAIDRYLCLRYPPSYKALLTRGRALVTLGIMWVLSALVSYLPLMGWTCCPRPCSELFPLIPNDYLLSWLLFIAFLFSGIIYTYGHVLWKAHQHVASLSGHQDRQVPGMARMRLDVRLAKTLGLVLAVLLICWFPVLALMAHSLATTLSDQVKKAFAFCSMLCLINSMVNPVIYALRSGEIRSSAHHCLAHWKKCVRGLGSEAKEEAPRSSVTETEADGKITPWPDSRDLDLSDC
# T5 sequence (P11712 whole entry): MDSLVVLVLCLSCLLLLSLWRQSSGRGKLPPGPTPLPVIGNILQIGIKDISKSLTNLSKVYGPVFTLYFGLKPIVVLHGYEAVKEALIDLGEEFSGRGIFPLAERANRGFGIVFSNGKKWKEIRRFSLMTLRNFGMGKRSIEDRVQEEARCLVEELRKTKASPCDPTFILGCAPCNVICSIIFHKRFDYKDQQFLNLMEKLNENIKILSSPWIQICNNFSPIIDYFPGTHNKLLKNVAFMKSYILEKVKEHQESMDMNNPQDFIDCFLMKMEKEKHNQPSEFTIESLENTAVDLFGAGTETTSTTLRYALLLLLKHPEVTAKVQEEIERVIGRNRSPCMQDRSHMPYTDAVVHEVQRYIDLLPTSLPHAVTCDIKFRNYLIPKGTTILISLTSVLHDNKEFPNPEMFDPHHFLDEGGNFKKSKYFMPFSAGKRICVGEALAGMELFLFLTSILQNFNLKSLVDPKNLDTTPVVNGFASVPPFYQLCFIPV
# T4 sequence (P10635 whole entry): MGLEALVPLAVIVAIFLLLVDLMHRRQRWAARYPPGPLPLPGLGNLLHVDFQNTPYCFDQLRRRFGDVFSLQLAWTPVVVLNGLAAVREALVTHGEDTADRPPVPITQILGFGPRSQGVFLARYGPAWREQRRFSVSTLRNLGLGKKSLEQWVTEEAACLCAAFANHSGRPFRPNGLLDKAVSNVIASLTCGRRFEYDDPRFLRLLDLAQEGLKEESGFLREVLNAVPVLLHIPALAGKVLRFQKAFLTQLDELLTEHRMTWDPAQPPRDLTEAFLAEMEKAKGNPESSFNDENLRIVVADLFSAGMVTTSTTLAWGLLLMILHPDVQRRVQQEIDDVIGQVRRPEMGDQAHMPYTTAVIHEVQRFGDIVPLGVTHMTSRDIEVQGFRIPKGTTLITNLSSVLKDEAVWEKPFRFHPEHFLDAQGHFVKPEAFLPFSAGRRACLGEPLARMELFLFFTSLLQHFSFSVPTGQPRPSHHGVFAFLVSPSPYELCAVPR
# T1 sequence (P20272 whole entry): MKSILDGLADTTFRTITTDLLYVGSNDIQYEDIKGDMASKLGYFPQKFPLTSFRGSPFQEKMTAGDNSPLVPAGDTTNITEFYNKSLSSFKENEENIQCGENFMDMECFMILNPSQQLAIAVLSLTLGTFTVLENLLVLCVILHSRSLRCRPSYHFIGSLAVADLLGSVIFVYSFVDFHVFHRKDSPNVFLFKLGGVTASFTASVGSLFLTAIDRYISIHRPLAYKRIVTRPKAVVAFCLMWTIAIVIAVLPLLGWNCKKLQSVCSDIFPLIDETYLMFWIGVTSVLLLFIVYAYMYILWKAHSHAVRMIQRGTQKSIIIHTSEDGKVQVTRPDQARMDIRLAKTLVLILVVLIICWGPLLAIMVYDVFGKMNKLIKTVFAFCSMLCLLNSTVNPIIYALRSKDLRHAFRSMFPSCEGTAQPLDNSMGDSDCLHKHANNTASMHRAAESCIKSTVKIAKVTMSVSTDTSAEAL
smiles,measurement,setting,value
"CC(C)(N[C@@H]1C[C@H](c2cccc(OC(F)(F)F)c2)N(c2ccc(C#N)cc2)C1=O)c1cccc(C(F)(F)F)n1 [27 Tosylate salt, 4-[(3R,5R)-3-[1-methyl-1-(6-trifluoromethyl-pyridin-2-yl)-ethylamino]-2-oxo-5-(3-trifluoromethoxy-phenyl)-pyrrolidin-1-yl]-benzonitrile tosylate]",Kb,[1],0.238 nM
same,Kb,[2],> 18400 nM
same,Kb,[3],1.77 nM
same,Risk of Drug Drug Interaction (DDI) CYP2D6,[4],Low
same,Kb,[5],0.179 nM
same,Risk of Drug Drug Interaction (DDI) CYP3A,[6],Low
same,EC50,[7],> 100000 nM
same,Risk of Drug Drug Interaction (DDI) CYP2C9,[8],low (a reduction in metabolite peak area of less than 30% (relative to the uninhibited control incubation) receives a designation of low risk of Drug Drug Interaction (DDI))
same,EC50,"[9]; inverse agonism, read-out: hCB-1 SPA GTPγS CHO Membrane Agonist Relative EC50 inverse",0.943 nM
same,hCB-1 SPA GTPγS CHO Membrane Agonist % Relative Efficacy,[9]; normalized to full agonist methanandamide,−97.3%

# Source: US8426448B2, “1,5-diphenyl-pyrrolidin-2-one compounds as CB-1 ligands” (Eli Lilly and Company, priority 2008, dated 2013)
